Test results published in patent US11161856B2 (H. Lundbeck A/S, priority 2017, dated 2021).

Tests used:
Assay type in all cases: biochemical
MAGL = target: T1, MAGL (Homo sapiens, UniProt Q99685); test: In vitro competitive activity-based protein profiling (FP-Rh or HT-01 probe, gel-based); parameters: IC50 MGLL PC3 (Human, μM) / IC50 MGLL PFC (Human, μM): scale not given here; conditions: for % Inh MGLL PFC (Human, μM) / IC50 MGLL PFC (Human, μM): prefrontal cortex (PFC) proteome; for % Inh MGLL PFC (Human, μM) / % Inh MGLL PC3 (Human, μM): concentration not given (μM); for IC50 MGLL PC3 (Human, μM) / % Inh MGLL PC3 (Human, μM): PC3 cell proteome
T1 construct: Proteomes (human prefrontal cortex or cell membrane fractions); from tissue
T1 sequence (Q99685 1-303): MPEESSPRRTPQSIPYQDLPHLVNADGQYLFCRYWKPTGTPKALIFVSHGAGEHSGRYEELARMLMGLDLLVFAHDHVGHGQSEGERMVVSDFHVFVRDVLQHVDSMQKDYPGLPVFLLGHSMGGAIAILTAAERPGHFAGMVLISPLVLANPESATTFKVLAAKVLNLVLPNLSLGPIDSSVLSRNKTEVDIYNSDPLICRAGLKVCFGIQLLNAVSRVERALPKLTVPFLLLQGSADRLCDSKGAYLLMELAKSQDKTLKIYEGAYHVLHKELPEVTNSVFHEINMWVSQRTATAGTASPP
Outline: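 Human prefrontal cortex or cell membrane proteomes (1.0 mg/mL total protein) were preincubated with varying inhibitor concentrations for 30 min at 37° C. FP-Rh or HT-01 probe (50 μM DMSO stock) was then added for 30 min at room temperature, and samples were quenched in SDS loading buffer and resolved by SDS-PAGE.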

MGLL = target: T2, MGLL (Mus musculus, UniProt O35678); test: In vitro competitive activity-based protein profiling, mouse brain proteome (MGLL); parameters: IC50 MGLL Brain (Mouse, μM): scale not given here; conditions: for % Inh MGLL Brain (Mouse, μM): concentration not given (μM)
T2 construct: Brain; from tissue; host or cells: mouse brain proteome
T2 sequence (O35678 1-303): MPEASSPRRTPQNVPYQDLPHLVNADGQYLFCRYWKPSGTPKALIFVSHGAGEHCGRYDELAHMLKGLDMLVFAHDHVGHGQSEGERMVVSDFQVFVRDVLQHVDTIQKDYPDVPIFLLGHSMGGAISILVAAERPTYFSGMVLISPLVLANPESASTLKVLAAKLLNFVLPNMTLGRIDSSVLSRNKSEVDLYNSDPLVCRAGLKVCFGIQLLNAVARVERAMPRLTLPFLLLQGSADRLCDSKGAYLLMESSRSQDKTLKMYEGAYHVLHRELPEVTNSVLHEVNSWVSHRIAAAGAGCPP

ABHD6 = target: T3, ABHD6 (Mus musculus, UniProt Q8R2Y0); test: In vitro competitive activity-based protein profiling, mouse brain proteome (ABHD6); conditions: mouse brain proteome; concentration not given (μM)
T3 construct: Brain; from tissue; host or cells: mouse brain proteome
T3 sequence (Q8R2Y0 1-336): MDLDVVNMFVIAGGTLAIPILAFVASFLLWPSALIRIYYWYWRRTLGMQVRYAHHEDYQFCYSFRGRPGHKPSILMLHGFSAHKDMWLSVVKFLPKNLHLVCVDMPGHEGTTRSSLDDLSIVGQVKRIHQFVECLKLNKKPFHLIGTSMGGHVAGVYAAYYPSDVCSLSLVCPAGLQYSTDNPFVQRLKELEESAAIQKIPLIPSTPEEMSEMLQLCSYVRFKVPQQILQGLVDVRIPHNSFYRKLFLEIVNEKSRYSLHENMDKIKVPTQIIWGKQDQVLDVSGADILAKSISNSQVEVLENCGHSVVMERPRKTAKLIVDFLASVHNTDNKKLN
Description: [The source words this procedure for another target and reports this target under the same test.] In Vitro Competitive Activity-Based Protein Profiling.
Proteomes (human prefrontal cortex or cell membrane fractions) (50 μL, 1.0 mg/mL total protein concentration) were preincubated with varying concentrations of inhibitors at 37° C. After 30 min, FP-Rh or HT-01 (1.0 μL, 50 μM in DMSO) was added and the mixture was incubated for another 30 min at room temperature. Reactions were quenched with SDS loading buffer (15 μL-4×) and run on SDS-PAGE.

Compound	% Inh MGLL PFC (Human, μM) (MAGL)	% Inh MGLL Brain (Mouse, μM) (MGLL)	% Inh ABHD6 Brain (Mouse, μM) (ABHD6)	IC50 MGLL PC3 (Human, μM) (MAGL)	% Inh MGLL PC3 (Human, μM) (MAGL)	IC50 MGLL PFC (Human, μM) (MAGL)	IC50 MGLL Brain (Mouse, μM) (MGLL)
O=C(O)C1CCN(c2cc(Cl)ccc2CN2CC3(CCN(C(=O)OC(C(F)(F)F)C(F)(F)F)CC3)C2)CC1 [Example 122, l-(5-Chloro-2-((7-(((1,1,1,3,3,3-hexafluoropropan-2-yl)oxy)carbonyl)-2,7-diazaspiro[3.5]nonan-2-yl)methyl)phenyl)piperidine-4-carboxylic acid]	### (### is ≥75%)	### (### is ≥75%)	# (# is ≤25%)				
CC1(OCc2ccc(Cl)cc2C2(C(=O)O)CCCC2)CCN(C(=O)OC(C(F)(F)F)C(F)(F)F)CC1 [Example 146, 1-(5-Chloro-2-{[(1-{[(1,1,1,3,3,3-hexafluoropropan-2-yl)oxy]carbonyl}-4-methylpiperidin-4-yl)oxy]methyl}phenyl) cyclopentane-1-carboxylic acid]		### (### is ≥75%)	## (## is between 25 and 75%)		### (### is ≥75%)		
O=C(O)C1CCN(c2cc(CN3CCC4(CC3)CCN(C(=O)OC(C(F)(F)F)C(F)(F)F)C4)ccc2C(F)(F)F)CC1 [Example 221, 1-(5-((2-(((1,1,1,3,3,3-Hexafluoropropan-2-yl)oxy)carbonyl)-2.8-diazaspiro[4.5]decan-8-yl)methyl)-2-(trifluoromethyl)phenyl) piperidine-4-carboxylic acid]	### (### is ≥75%)	### (### is ≥75%)	### (### is ≥75%)				
O=C(O)C1CCN(c2cc(Cl)cc(CN3CC4(CCN(C(=O)OC(C(F)(F)F)C(F)(F)F)CC4)C3)c2)CC1 [Example 116, l-(3-Chloro-5-((7-(((1,1,1,3,3,3-hexafluoropropan-2-yl)oxy)carbonyl)-2,7-diazaspiro[3.5]nonan-2-yl)methyl)phenyl)piperidine-4-carboxylic acid]	### (### is ≥75%)	### (### is ≥75%)	### (### is ≥75%)				
O=C(O)C1CCN(Cc2cc(Cl)cc(C(=O)N3CCCC34CCN(C(=O)OC(C(F)(F)F)C(F)(F)F)CC4)c2)CC1 [Example 11, 1-(3-Chloro-5-(8-(((1,1,1,3,3,3-hexafluoropropan-2-yl)oxy)carbonyl)-1,8-diazaspiro[4.5]decane-1-carbonyl)benzyl)piperidine-4-carboxylic acid]		### (### is ≥75%)	# (# is ≤25%)		### (### is ≥75%)	* * *	
O=C(O)C1CCN(c2c(Cl)cccc2CN2CCC3(CC2)CCN(C(=O)OC(C(F)(F)F)C(F)(F)F)C3)CC1 [Example 218, l-(2-Chloro-6-{(2-(((1,1,1,3,3,3-hexafluoropropan-2-yl)oxy)carbonyl)-2,8-diazaspiro[4.5]decan-8-yl)methyl)phenyl)piperidine-4-carboxylic acid]	### (### is ≥75%)	### (### is ≥75%)	# (# is ≤25%)				

The next lines start with the values.

% Inh MGLL PFC (Human, μM) (MAGL)	% Inh MGLL Brain (Mouse, μM) (MGLL)	% Inh ABHD6 Brain (Mouse, μM) (ABHD6)	IC50 MGLL PC3 (Human, μM) (MAGL)	% Inh MGLL PC3 (Human, μM) (MAGL)	IC50 MGLL PFC (Human, μM) (MAGL)	IC50 MGLL Brain (Mouse, μM) (MGLL)	Compound
### (### is ≥75%)	### (### is ≥75%)	### (### is ≥75%)					O=C(O)C1CCN(c2cc(C(F)(F)F)ccc2CN2CC3(CCN(C(=O)OC(C(F)(F)F)C(F)(F)F)CC3)C2)C1 (stereo not drawn) [Example 101, l-(2-((7-(((1,1,1,3,3,3-Hexafluoropropan-2-yl)oxy)carbonyl)-2,7-diazaspiro[3,5]nonan-2-yl)methyl)-5-(trifluoromethyl)phenyl)pyrroli-dine-3-carboxylic acid]
	### (### is ≥75%)	### (### is ≥75%)	* * *	### (### is ≥75%)	* * *		CN(Cc1ccc(C(F)(F)F)cc1N1CC2CC1CN2CC(=O)O)C1(C)CCN(C(=O)OC(C(F)(F)F)C(F)(F)F)CC1 (stereo not drawn) [Example 27, 2-(5-(2-(((1-(((1,1,1,3,3,3-Hexafluoropropan-2-yl)oxy)carbonyl)-4-methylpiperidin-4-yl)(methyl)amino)methyl)-5-(trifluoromethyl)phenyl)-2,5-diazabicyclo[2.2.1]heptan-2-yl)acetic acid]
### (### is ≥75%)	### (### is ≥75%)	# (# is ≤25%)					CC1(C(=O)O)CCN(c2cc(C(F)(F)F)ccc2CN2CC3(CCN(C(=O)OC(C(F)(F)F)C(F)(F)F)CC3)C2)C1 (stereo not drawn) [Example 115, l-(2-((7-(((1,1,1,3,3,3-Hexafluoropropan-2-yl)oxy)carbonyl)-2,7-diazaspiro[3,5]nonan-2-yl)methyl)-5-(trifluoromethyl)phenyl)-3-methylpyrrolidine-3-carboxylic acid]
### (### is ≥75%)	### (### is ≥75%)	# (# is ≤25%)					O=C(O)CN1CC2(CCN(c3cc(CN4CCCC45CCN(C(=O)OC(C(F)(F)F)C(F)(F)F)CC5)cc(C(F)(F)F)c3)CC2)C1 [Example 158, 2-(7-(3-((8-(((1,1,1,3,3,3-Hexafluoropropan-2-yl)oxy)carbonyl)-1,8-diazaspiro[4.5]decan-1-yl)methyl)-5-(trifluoromethyl)phenyl)-2,7-diazaspiro[3,5]nonan-2-yl)acetic acid]
	### (### is ≥75%)	# (# is ≤25%)		### (### is ≥75%)			O=C(O)C1CCN(Cc2cc(C(F)(F)F)ccc2C(=O)N2CCCC23CCN(C(=O)OC(C(F)(F)F)C(F)(F)F)CC3)CC1 [Example 10, 1-(2-(8-(((1,1,1,3,3,3-Hexafluoropropan-2-yl)oxy)carbonyl)-1,8-diazaspiro[4.5]decane-1-carbonyl)-5-(trifluoromethyl)benzyl)piperidine-4-carboxylic acid]
	### (### is ≥75%)	# (# is ≤25%)		### (### is ≥75%)			CC(C)(C#Cc1ccccc1CN1CCCC12CCN(C(=O)OC(C(F)(F)F)C(F)(F)F)CC2)C(=O)O [Example 145, 4-{2-[(8-{[(1,1,1,3,3,3-Hexafluoropropan-2-yl)oxy]carbonyl}-1,8-diazaspiro[4.5]decan-1-yl)methyl]phenyl}-2,2-dimethylbut-3-ynoic acid]
### (### is ≥75%)	### (### is ≥75%)	# (# is ≤25%)					O=C(O)CN1CC2CN(c3cc(C(F)(F)F)ccc3CN3CCCC34CCN(C(=O)OC(C(F)(F)F)C(F)(F)F)CC4)CC2C1 (stereo not drawn) [Example 155]
### (### is ≥75%)	### (### is ≥75%)	### (### is ≥75%)					O=C(O)[C@@H]1CCCN(c2cc(CN3CC4(CCN(C(=O)OC(C(F)(F)F)C(F)(F)F)CC4)C3)cc(C(F)(F)F)c2)C1 [Example 105, (R)-1-(3-((7-(((1,1,1,3,3,3-Hexafluoropropan-2-yl)oxy)carbonyl)-2,7-diazaspiro[3,5]nonan-2-yl)methyl)-5-(trifluoromethyl)phenyl) piperidine-3-carboxylic acid]
	### (### is ≥75%)	# (# is ≤25%)	* * *	### (### is ≥75%)	* * *	* * *	O=C(O)CN1CCN(c2cc(C(F)(F)F)ccc2CN2CCCC23CCN(C(=O)OC(C(F)(F)F)C(F)(F)F)CC3)CC1 [Example 3, 2-(4-(2-((8-(((1,1,1,3,3,3-Hexafluoropropan-2-yl)oxy)carbonyl)-1,8-diazaspiro[4.5]decan-1-yl)methyl)-5-(trifluoromethyl)phenyl)piperazin-1-yl)acetic acid]
